The source of these data is ChEMBL document CHEMBL6092158, “Green synthesis of neuroprotective spirocyclic chalcone derivatives and their role in protecting against traumatic optic nerve injury” (Eur J Med Chem, 2024).

Active and inactive are the calls of the source. The rule behind the calls is not given here.

Assay [1] has as its system R28. As to the kind of experiment: Cytoprotective activity against hydrogen peroxide-induced cytotoxicity in rat R28 cells assessed as increase in cell viability at 10 uM preincubated for 24 hrs followed by incubation with H2O2 for 24 hrs by MTT assay. In kind it is functional, cell-based. (Formazan colour is commonly taken as a measure of viable cells.)
Assay [2] deals with R28. Kind of assay: Cytoprotective activity against glutamate-induced cytotoxicity in rat R28 cells assessed as increase in cell viability at 10 uM incubated for 24 hrs in presence of glutamate by MTT assay. It counts as functional, cell-based.

For the molecule `CN1C[C@H](c2ccc(O)c(O)c2)[C@@H](C(=O)c2cc(C(F)(F)F)cc(C(F)(F)F)c2)[C@]12C(=O)Nc1ccccc12`, the result in the assay on R28 [1] and in the assay on R28 [2] was inactive.
With `CN1C[C@H](c2ccc(O)c(O)c2)[C@@H](C(=O)c2cccc(F)c2)[C@]12C(=O)Nc1ccccc12`, the result with R28 [1] and with R28 [2] was Active.
In the case of `CN1C[C@H](c2ccc(O)c(O)c2)[C@@H](C(=O)c2ccc(S(C)(=O)=O)cc2)[C@]12C(=O)Nc1ccccc12`, the result with R28 [1] and in the assay on R28 [2] was inactive.
In the case of `CN1C[C@H](c2ccc(O)c(O)c2)[C@@H](C(=O)c2ccc([N+](=O)[O-])cc2)[C@]12C(=O)Nc1ccccc12`, the result in the assay with R28 [1] and in the assay on R28 [2] was inactive.
With `CCCc1ccc(C(=O)[C@@H]2[C@@H](c3ccc(O)c(O)c3)CN(C)[C@@]23C(=O)Nc2ccccc23)cc1`, the result with R28 [1] and in the assay with R28 [2] was Active.
For `CN1C[C@H](c2ccc(O)c(O)c2)[C@@H](C(=O)c2cccc(Cl)c2)[C@]12C(=O)Nc1ccccc12`, the outcome in the assay on R28 [1] and in the assay with R28 [2] was Active.
In the case of `CN1C[C@H](c2ccc(O)c(O)c2)[C@@H](C(=O)c2ccc(Br)cc2)[C@]12C(=O)Nc1ccccc12`, the result with R28 [1] and with R28 [2] was Active.
On to `CN1C[C@H](c2ccc(O)c(O)c2)[C@@H](C(=O)c2ccc(OC(F)(F)F)cc2)[C@]12C(=O)Nc1ccccc12`, for which the outcome in the assay with R28 [1] and in the assay on R28 [2] was Active.
`CN1C[C@H](c2ccc(O)c(O)c2)[C@@H](C(=O)c2ccc(Cl)cc2)[C@]12C(=O)Nc1ccccc12`: the result with R28 [1] and in the assay on R28 [2] was Active.
With `CN1C[C@H](c2ccc(O)c(O)c2)[C@@H](C(=O)c2cccc(O)c2)[C@]12C(=O)Nc1ccccc12`, the outcome with R28 [1] and with R28 [2] was Active.
On to `CN1C[C@H](c2ccc(O)c(O)c2)[C@@H](C(=O)c2ccccc2)[C@]12C(=O)Nc1ccccc12`, for which the result with R28 [1] and in the assay with R28 [2] was Active.
Turning to `CN1C[C@H](c2ccc(O)c(O)c2)[C@@H](C(=O)c2ccc(O)cc2)[C@]12C(=O)Nc1ccccc12`, the outcome in the assay with R28 [1] and in the assay with R28 [2] was Active.
Turning to `COc1cc(C(=O)[C@@H]2[C@@H](c3ccc(O)c(O)c3)CN(C)[C@@]23C(=O)Nc2ccccc23)cc(OC)c1OC`, the result with R28 [1] and in the assay on R28 [2] was Active.
`COc1cc(C(=O)[C@@H]2[C@@H](c3ccc(O)c(O)c3)CN(C)[C@@]23C(=O)Nc2ccccc23)ccc1O`: the result with R28 [1] and with R28 [2] was Active.
On to `CN1C[C@H](c2ccc(O)c(O)c2)[C@@H](C(=O)c2cccc(C(F)(F)F)c2)[C@]12C(=O)Nc1ccccc12`, for which the outcome with R28 [1] and with R28 [2] was inactive.
Regarding `COc1ccc(C(=O)[C@@H]2[C@@H](c3ccc(O)c(O)c3)CN(C)[C@@]23C(=O)Nc2ccccc23)cc1OC`, the outcome with R28 [1] and in the assay with R28 [2] was Active.
With `CN1C[C@H](c2ccc(O)c(O)c2)[C@@H](C(=O)c2cccc(Br)c2)[C@]12C(=O)Nc1ccccc12`, the result in the assay on R28 [1] and in the assay with R28 [2] was Active.
For the molecule `CN1C[C@H](c2ccc(O)c(O)c2)[C@@H](C(=O)c2ccccc2C(F)(F)F)[C@]12C(=O)Nc1ccccc12`, the outcome with R28 [1] and in the assay on R28 [2] was inactive.
Consider `CN1C[C@H](c2ccc(O)c(O)c2)[C@@H](C(=O)c2ccc(Cl)cc2Cl)[C@]12C(=O)Nc1ccccc12`, for which the outcome in the assay on R28 [1] and with R28 [2] was Active.
As to `CN1C[C@H](c2ccc(O)c(O)c2)[C@@H](C(=O)c2ccc(Br)cc2F)[C@]12C(=O)Nc1ccccc12`, the outcome in the assay with R28 [1] and in the assay with R28 [2] was Active.
Regarding `CN1C[C@H](c2ccc(O)c(O)c2)[C@@H](C(=O)c2ccc(F)cc2)[C@]12C(=O)Nc1ccccc12`, the result in the assay with R28 [1] and in the assay on R28 [2] was Active.
As to `COc1ccc(C(=O)[C@@H]2[C@@H](c3ccc(O)c(O)c3)CN(C)[C@@]23C(=O)Nc2ccccc23)cc1`, the result in the assay on R28 [1] and with R28 [2] was Active.
